Drawing on ChEMBL document CHEMBL4483862, “Open-source discovery of chemical leads for next-generation chemoprotective antimalarials” (2018), this text covers IC50 and IC90 for 29 compounds.

For orientation: IC50 means the concentration that gives 50% inhibition. The term IC90 denotes the point of the concentration-response curve where the effect stands at 90%.

The subject of this test is Plasmodium berghei. In words: Luciferase/luciferin-expressing antifolate-resistant parasites were used to infect a culture of HepG2 cells that were pre-incubated with compounds. Infected hepatocytes emit light due to the luciferase reaction. Assay results are presented as the percent inhibition of light emission compared to control. […]. Type of test: functional. Conditions: sporozoite; for IC90: read-out: LUCIFERASE INFECTION ASSAY - IC90.

For the compound `COc1cc(/C=N/Nc2c(Cl)c(Cl)nc(C(=O)O)c2Cl)cc(OC)c1OC`, the IC90 is over 10 µM. Moreover, the IC50 (HEPG2TOX_HILL_SLOPE 0.214, HEPG2TOX_R_SQUARED 0.0951, read-out: LUCIFERASE INFECTION ASSAY - IC50) is over 10 µM.

Consider `Cc1ccc(-c2cs/c(=N\c3cccnc3)n2CCCn2ccnc2)cc1C`, for which the IC90 is over 10 µM. In addition, under “HEPG2TOX_HILL_SLOPE 0.267, HEPG2TOX_R_SQUARED 0.885, PBLUC_HILL_SLOPE 2.25, PBLUC_R_SQUARED 0.462, read-out: LUCIFERASE INFECTION ASSAY - IC50”, the concentration for half-maximal inhibition (IC50) was 5.5 µM.

In the case of `CC(C)c1ccccc1NC(=O)Nc1nc(C(N)C2CCCCC2)cs1` (stereo not drawn), the concentration for an effect of 90% (IC90) worked out at 8 µM. The IC50 (HEPG2TOX_HILL_SLOPE 0.21, HEPG2TOX_R_SQUARED 0.263, PBLUC_HILL_SLOPE 31.8, PBLUC_R_SQUARED 0.686, read-out: LUCIFERASE INFECTION ASSAY - IC50) came out at 7.47 µM.

Take `Cc1ccc(O)c(C(=O)NCCC(C)C)c1`: the IC90 was over 10 µM. In addition, under “HEPG2TOX_HILL_SLOPE 0.253, HEPG2TOX_R_SQUARED 0.657, PBLUC_HILL_SLOPE 0.85, PBLUC_R_SQUARED 0.659, read-out: LUCIFERASE INFECTION ASSAY - IC50”, the concentration for half-maximal inhibition (IC50) was found to be 2.35 µM.

Take `COc1ccc2cc(CN(C)CC(=O)Nc3sccc3C(N)=O)ccc2c1`: the IC90 stood at 4.94 µM. The IC50 (HEPG2TOX_HILL_SLOPE 0.237, HEPG2TOX_R_SQUARED 0.621, PBLUC_HILL_SLOPE 9.54, PBLUC_R_SQUARED 0.647, read-out: LUCIFERASE INFECTION ASSAY - IC50) is 3.92 µM.

`CNc1nc2cnc(Nc3cccc(C(C)C)c3)cc2n1CCOC`: the 90% effect concentration (IC90) was over 10 µM. Also, the IC50 (HEPG2TOX_HILL_SLOPE 0.218, HEPG2TOX_R_SQUARED 0.135, read-out: LUCIFERASE INFECTION ASSAY - IC50) is over 10 µM.

In the case of `c1ccc(-c2cc3c(NCCCN4CCN(c5ncccn5)CC4)ncnc3s2)cc1`, the IC90 came out at 4.71 µM. Besides, the IC50 (HEPG2TOX_HILL_SLOPE 0.225, HEPG2TOX_R_SQUARED 0.56, PBLUC_HILL_SLOPE 1.89, PBLUC_R_SQUARED 0.636, read-out: LUCIFERASE INFECTION ASSAY - IC50) turned out to be 1.47 µM.

`COc1ccc(-c2nnc3ccc(-c4ccc5ncccc5c4)cn23)cc1OC`: the concentration for an effect of 90% (IC90) came to 0.0668 µM. The IC50 (HEPG2TOX_HILL_SLOPE 0.239, HEPG2TOX_R_SQUARED 0.342, PBLUC_HILL_SLOPE 2.22, PBLUC_R_SQUARED 0.642, read-out: LUCIFERASE INFECTION ASSAY - IC50) came to 0.0248 µM.

For the compound `Cc1ccccc1-c1cn2c(-c3ccc4ncccc4c3)cnc2cn1`, the IC90 came out at 0.015 µM. In addition, the IC50 (HEPG2TOX_HILL_SLOPE 0.237, HEPG2TOX_R_SQUARED 0.401, PBLUC_HILL_SLOPE 15.7, PBLUC_R_SQUARED 0.693, read-out: LUCIFERASE INFECTION ASSAY - IC50) was found to be 0.0131 µM.

Take `CC(NC(=O)CSc1nnc(-c2cccs2)[nH]1)c1ccc2c(c1)CCCC2` (stereo not drawn): the IC90 was over 10 µM. In addition, the concentration for half-maximal inhibition (IC50) (HEPG2TOX_HILL_SLOPE 0.208, HEPG2TOX_R_SQUARED 0.204, PBLUC_HILL_SLOPE 1.17, PBLUC_R_SQUARED 0.355, read-out: LUCIFERASE INFECTION ASSAY - IC50) worked out at 7.84 µM.

In the case of `Cc1cccc(OCCN(C)Cc2cc(=O)n3c([nH]c4ccccc43)c2C#N)c1`, the IC90 turned out to be 7.03 µM. Further, under “HEPG2TOX_HILL_SLOPE 0.204, HEPG2TOX_R_SQUARED 0.162, PBLUC_HILL_SLOPE 2.87, PBLUC_R_SQUARED 0.544, read-out: LUCIFERASE INFECTION ASSAY - IC50”, the IC50 was 3.27 µM.

`CCCn1nc(C(=O)Nc2ccccc2N2CCc3ccccc3C2)ccc1=O`: the concentration for an effect of 90% (IC90) was over 10 µM. Further, where the note is “HEPG2TOX_HILL_SLOPE 0.246, HEPG2TOX_R_SQUARED 0.177, PBLUC_HILL_SLOPE 1.82, PBLUC_R_SQUARED 0.418, read-out: LUCIFERASE INFECTION ASSAY - IC50”, the IC50 turned out to be 4.28 µM.

For `O=C(Nc1ccc(Cl)c(S(=O)(=O)N2CCCC2)c1)c1[nH]nc2ccccc12`, the IC90 was over 10 µM. Further, the IC50 (HEPG2TOX_HILL_SLOPE 0.202, HEPG2TOX_R_SQUARED 0.183, PBLUC_HILL_SLOPE 12.1, PBLUC_R_SQUARED 0.78, read-out: LUCIFERASE INFECTION ASSAY - IC50) is 9.03 µM.

As to `CN(Cc1cc(=O)n2c([nH]c3ccccc32)c1C#N)Cc1c(F)cccc1Cl`, the IC90 is 6.11 µM. Besides, the IC50 (HEPG2TOX_HILL_SLOPE 0.22, HEPG2TOX_R_SQUARED 0.757, PBLUC_HILL_SLOPE 1.9, PBLUC_R_SQUARED 0.518, read-out: LUCIFERASE INFECTION ASSAY - IC50) was found to be 1.92 µM.

In the case of `C=C1c2ccccc2N=C(SC(C)C(=O)Nc2ccccc2)N1C` (stereo not drawn), the IC90 turned out to be 6.88 µM. In addition, the IC50 (HEPG2TOX_HILL_SLOPE 0.246, HEPG2TOX_R_SQUARED 0.527, PBLUC_HILL_SLOPE 4.19, PBLUC_R_SQUARED 0.571, read-out: LUCIFERASE INFECTION ASSAY - IC50) worked out at 4.07 µM.

With `CCCC/N=C1\SCC(c2c[nH]c3ccccc23)=NN1C`, the IC90 was over 10 µM. Moreover, the IC50 (HEPG2TOX_HILL_SLOPE 0.211, HEPG2TOX_R_SQUARED 0.832, read-out: LUCIFERASE INFECTION ASSAY - IC50) is over 10 µM.

On to `CNc1ncnc(NNC(=O)Nc2ccccc2)c1[N+](=O)[O-]`, for which the IC90 is over 10.9 µM. Further, the IC50 (HEPG2TOX_HILL_SLOPE 0.255, HEPG2TOX_R_SQUARED 0.589, PBLUC_HILL_SLOPE 1.34, PBLUC_R_SQUARED 0.392, read-out: LUCIFERASE INFECTION ASSAY - IC50) came out at 6.01 µM.

Turning to `O=C(COC(=O)c1c2c(nc3ccccc13)CCCC2)Nc1ccccc1`, the 90% effect concentration (IC90) is over 10 µM. Besides, where the note is “HEPG2TOX_HILL_SLOPE 0.267, HEPG2TOX_R_SQUARED 0.55, read-out: LUCIFERASE INFECTION ASSAY - IC50”, the IC50 is over 10 µM.

Take `Cc1nc(CSc2nc3c(c(-c4ccccc4)c2C#N)C(=O)CC(C)(C)C3)cs1`: the concentration for an effect of 90% (IC90) was over 10 µM. In addition, the IC50 (HEPG2TOX_HILL_SLOPE 0.218, HEPG2TOX_R_SQUARED 0.218, PBLUC_HILL_SLOPE 7.94, PBLUC_R_SQUARED 0.255, read-out: LUCIFERASE INFECTION ASSAY - IC50) worked out at 9.59 µM.

For the compound `Cc1nc(-c2ccc(CCNc3ncnc4sccc34)cc2)cs1`, the IC90 was over 10 µM. For the same compound, the IC50 (HEPG2TOX_HILL_SLOPE 0.209, HEPG2TOX_R_SQUARED 0.388, PBLUC_HILL_SLOPE 0.293, PBLUC_R_SQUARED 0.513, read-out: LUCIFERASE INFECTION ASSAY - IC50) was 0.0119 µM.

`Cc1cc(/C=C(\C#N)c2nnc(N3CCOCC3)n2-c2ccccc2)c(C)n1-c1cccc(C(F)(F)F)c1`: the concentration for an effect of 90% (IC90) is over 10 µM. Further, for the setting “HEPG2TOX_HILL_SLOPE 0.204, HEPG2TOX_R_SQUARED 0.0193, PBLUC_HILL_SLOPE 1.7, PBLUC_R_SQUARED 0.432, read-out: LUCIFERASE INFECTION ASSAY - IC50”, the concentration for half-maximal inhibition (IC50) is over 10 µM.

Take `CCC(C)c1ccc(NC(=O)/C(C#N)=C/c2cc3c(cc2[N+](=O)[O-])OCO3)cc1` (stereo not drawn): the IC90 is over 10 µM. For the same compound, the IC50 (HEPG2TOX_HILL_SLOPE 0.229, HEPG2TOX_R_SQUARED 0.341, PBLUC_HILL_SLOPE 0.634, PBLUC_R_SQUARED 0.752, read-out: LUCIFERASE INFECTION ASSAY - IC50) stood at 2.46 µM.

As for `COc1ccc(CN2C(=O)N(CC(C)C)C3(CCN(Cc4ccc5c(c4)CCO5)CC3)C2=O)cc1`, the IC90 was over 6.91 µM. For the same compound, the half-inhibitory concentration (IC50) (HEPG2TOX_HILL_SLOPE 0.211, HEPG2TOX_R_SQUARED 0.0109, PBLUC_HILL_SLOPE 2.27, PBLUC_R_SQUARED 0.453, read-out: LUCIFERASE INFECTION ASSAY - IC50) amounted to 3.57 µM.

For the compound `Cc1c(S(=O)(=O)c2ccc(Cl)cc2)csc1NC(=O)Nc1cc(C2CC2)n[nH]1`, the IC90 was over 7.55 µM. The IC50 (HEPG2TOX_HILL_SLOPE 0.224, HEPG2TOX_R_SQUARED 0.199, PBLUC_HILL_SLOPE 2.99, PBLUC_R_SQUARED 0.447, read-out: LUCIFERASE INFECTION ASSAY - IC50) turned out to be 4.79 µM.

For the compound `CC(Nc1ccc2c(c1)CCC2)C(=O)Nc1sccc1C(N)=O` (stereo not drawn), the IC90 stood at 1.74 µM. Moreover, where the note is “HEPG2TOX_HILL_SLOPE 0.241, HEPG2TOX_R_SQUARED 0.874, PBLUC_HILL_SLOPE 11.9, PBLUC_R_SQUARED 0.588, read-out: LUCIFERASE INFECTION ASSAY - IC50”, the IC50 is 1.45 µM.

On to `O=C(NC1CC1)c1ccc(-c2cnc3cnc(/C=C/c4ccccc4)cn23)cc1`, for which the IC90 was over 8.67 µM. Besides, the IC50 (HEPG2TOX_HILL_SLOPE 0.214, HEPG2TOX_R_SQUARED 0.714, PBLUC_HILL_SLOPE 0.95, PBLUC_R_SQUARED 0.815, read-out: LUCIFERASE INFECTION ASSAY - IC50) was found to be 1.05 µM.

Consider `NS(=O)(=O)c1ccc(-n2ncc(Nc3ccc(F)cc3)c(Cl)c2=O)cc1`, for which the IC90 was over 10 µM. Further, the IC50 (HEPG2TOX_HILL_SLOPE 0.263, HEPG2TOX_R_SQUARED 0.596, PBLUC_HILL_SLOPE 7.27, PBLUC_R_SQUARED 0.0377, read-out: LUCIFERASE INFECTION ASSAY - IC50) was over 10 µM.

As to `Cc1sc2ncnc(SCC(=O)N3N=C4/C(=C/c5ccccc5)CCCC4C3c3ccccc3)c2c1C` (stereo not drawn), the IC90 is over 10 µM. Further, the IC50 (HEPG2TOX_HILL_SLOPE 0.257, HEPG2TOX_R_SQUARED 0.0474, read-out: LUCIFERASE INFECTION ASSAY - IC50) is over 10 µM.

For `Cc1nnc(NC(=O)c2cn(-c3ccccc3)nc2-c2ccccc2C)o1`, the IC90 is 0.255 µM. Moreover, under “HEPG2TOX_HILL_SLOPE 0.258, HEPG2TOX_R_SQUARED 0.871, PBLUC_HILL_SLOPE 2.72, PBLUC_R_SQUARED 0.839, read-out: LUCIFERASE INFECTION ASSAY - IC50”, the IC50 worked out at 0.114 µM.
